Reference: patent US20190106460A1, “BINDING INHIBITORS OF THE BETA. TRANSDUCIN REPEAT-CONTAINING PROTEIN” (priority 2011, published 2019)
Like-named read-outs stand apart in the source and are kept apart here. Starred links: 1 amine or outer side, 2 acyl side, 3 side chain; linkers in the order of their positions; H or OH if unused. Non-standard residues stand in square brackets, D forms with d. Residues, ends and D or L forms follow the SMILES beside them. Phe(4-NO2) = N[C@@H](Cc1ccc([N+](=O)[O-])cc1)C(=O)O; Phe(3-F) = N[C@@H](Cc1cccc(F)c1)C(=O)O; 1Nal = N[C@@H](Cc1cccc2ccccc12)C(=O)O; Phe(2-F) = N[C@@H](Cc1ccccc1F)C(=O)O; Maleoyl = O=C(/C=C\C(=O)[*:2])[*:1]; Suc = O=C(CCC(=O)[*:2])[*:1]

What was measured:
[1] = molecular target: βTrCP (Homo sapiens, UniProt Q9Y297); test: Fluorescence polarisation (FP) binding assay with fluorescein-tagged IκB peptide
Target sequence in this assay (P63208 whole entry partner, one chain of several): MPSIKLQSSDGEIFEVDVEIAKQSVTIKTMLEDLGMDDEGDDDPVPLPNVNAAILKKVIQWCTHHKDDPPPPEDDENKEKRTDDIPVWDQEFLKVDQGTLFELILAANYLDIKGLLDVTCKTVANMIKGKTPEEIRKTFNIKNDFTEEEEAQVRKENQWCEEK

[2] = molecular target: βTrCP/Skp1 (Homo sapiens, UniProt Q9Y297); test: Surface plasmon resonance (SPR), Biacore T200; format: binding; conditions: apparent KD averaged over both surfaces
Description: Surface Plasmon Resonance (SPR)
Experiments were carried out using the Biacore T200 SPR detection system. This system exploits the phenomenon of surface plasmon resonance (SPR) to monitor interactions between molecules. The system involves the attachment of one interacting partner to a surface (an appropriate sensor chip) while the other interacting partner is passed over it in solution. The binding of molecules to the surface generates an SPR response (measured in response units (RU)) that is proportional to the mass and amount of the biomolecule (in this case βTrCP/Skp1) bound to the chip. The relative responses obtained are dependent on the concentration of the molecule binding. At RUmaximum, the attached protein's binding sites are saturated. Binding events can be followed in real time and a range of interaction characteristics can be determined including kinetics, specificity of interactions and the concentration of specific molecules in a sample.
As βTrCP was His tagged, an NTA sensor chip was used. This sensor chip has a dextran surface matrix with immobilized nitrilotriacetic acid (NTA) which provides a means of capturing polyHis-tagged proteins through Nickel chelation. It was hoped that addition of Ni^+ would orient the protein in a specific (and hopefully active) manner as it is covalently immobilised via amine coupling. Addition of EDC:NHS (N-ethyl-N′-(3-[…])-carbodiimide:N-hydroxysuccinimide) converts carboxyl groups on the dextran sensor chip surface to succinamide esters which readily form covalent bonds with primary amines. Each chip contains four flow cells (each a separate surface) which means that compounds/peptides can be passed over different forms of βTrCP and a reference surface simultaneously. If binding to βTrCP is occurring, responses should be the same (accounting for differences in density of surface etc) on each surface.
Two different βTrCP protein complexes were immobilised on to an NTA biacore sensor chip. One included the GSTSkp1 fusion (HisβTrCP/GSTSkp1) while the other was immobilised after GST Removal by Thrombin (HisβTrCP/Skp1). To ensure that the GST moiety is completely removed from Skp1, βTrCP/GSTSkp1 was incubated with thrombin ((10units/mg protein) for at least 16 hours at room temperature in 10mMHEPES 150mMNaCl pH7.4+2 mM CaCl2. Thrombin and GST were removed from βTrCP/Skp1 by buffer exchange through a 50 KDa MWCO vivaspin concentrator.
Protein Immobilisation Procedure for NTA Chip
Ni+ (500 μM NiCl) loaded on to surface at a flow rate of 5 μl/min for 60s. EDC/NHS (activates dextran carboxylates) loaded at a flow rate of 5 μl/min for 240s. Protein ([protein]=100 nM to 1 μM) loaded at a flow rate of 10 μl/min for 180s. Strip solution (350 μM EDTA/1M NaCl) added at flow rate of 10 μl/min for 30s (to chelate excess Ni+ and remove non-covalently bound protein e.g. protein oligomers). Quench solution (ethanolamine) at flow rate of 5 μl/min for 240s (to deactivate surface molecules on the chip that have not crosslinked protein). The immobilisation buffer used was 10 mM HEPES pH 7.4, 150 mM NaCl,
GST Capture Procedure (for Immobilisation Via GSTSkp1)
EDC:NHS was injected at 5 μl/min for 4 min to activate surface for amine coupling (this converts carboxyl groups on the surface of the chip to succinamide esters that react with primary amines)
Anti-GST (60 μg/ml). was loaded at 10 μl/min for 4 min resulting in an increase in response units of 6730 (Biacore manual states it should result in ˜7000)
Ethanolamine was injected at 5 μl/min for 5 min to deactivate remaining unreacted esters at surface (quenching).
Injection of a low concentration of purified GST (from kit) was injected for 3 mins at 5 μl/min before running a regeneration cycle with glycine pH2.0 that disrupts the antibody-GST interaction. […]

[3] = molecular target: T1, βTrCP (Homo sapiens, UniProt Q9Y297); test: Biotin pull down assay with biotinylated IκB peptide; format: binding; conditions: for Biotin Pulldown Assay 10 μM: 10 μM compound; for Biotin Pulldown Assay 100 μM: 100 μM compound
T1 sequence (Q9Y297 1-605): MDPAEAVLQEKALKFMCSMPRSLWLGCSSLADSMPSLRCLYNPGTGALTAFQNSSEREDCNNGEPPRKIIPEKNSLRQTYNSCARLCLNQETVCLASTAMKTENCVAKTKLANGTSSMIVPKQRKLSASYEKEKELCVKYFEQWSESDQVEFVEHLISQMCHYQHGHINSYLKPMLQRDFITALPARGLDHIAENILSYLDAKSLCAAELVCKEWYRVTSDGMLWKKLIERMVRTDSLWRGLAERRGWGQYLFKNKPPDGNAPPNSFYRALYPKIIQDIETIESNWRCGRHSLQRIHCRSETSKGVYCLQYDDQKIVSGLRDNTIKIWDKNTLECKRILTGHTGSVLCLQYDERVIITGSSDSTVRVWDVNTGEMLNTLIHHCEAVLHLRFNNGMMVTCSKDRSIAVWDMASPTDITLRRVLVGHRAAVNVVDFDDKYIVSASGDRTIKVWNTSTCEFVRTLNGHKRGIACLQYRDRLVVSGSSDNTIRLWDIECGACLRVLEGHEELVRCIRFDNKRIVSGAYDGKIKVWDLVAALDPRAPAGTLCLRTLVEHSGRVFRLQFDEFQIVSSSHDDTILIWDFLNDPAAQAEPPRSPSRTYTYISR

[4] = molecular target: β-TrCP1/Skp1 (Homo sapiens, UniProt Q9Y297); test: βTrCP ubiquitination assay (Ub assay); format: biochemical; conditions: for Ub Assay 10 μM: 10 μM compound; for Ub Assay 100 μM: 100 μM compound
Summary of the method: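 Compounds tested in duplicate at 10 and 100 μM in βTrCP(IκBα) and βTrCP(β-catenin) cascades with UBE1 E1, UbcH3 E2 and biotinylated ubiquitin; substrate phosphorylation done without compound, ubiquitination steps with compound. Product captured on anti-c-Myc plates and detected with SA-Ru TAG by MSD electrochemiluminescence.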

[5] = molecular target: Skp2 (Homo sapiens, UniProt Q13309); test: Selectivity assay vs other E3s: Skp2; format: biochemical; conditions: for inhibition at 100 µM: value in brackets, read-out: % Inhibition Skp2 @ (100 μM); for inhibition at 10 µM: read-out: % Inhibition Skp2 @ 10 μM
Summary of the method: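 Skp2 ubiquitination was measured in master mixes of 50 mM Herpes buffer, pH 7.5, with 75 mM NaCl and 1 mM DTT, lacking Mg or ATP. Test compounds were preincubated for 30 minutes at room temperature, Mg/ATP was added for a further 60 minutes, and reactions were boiled in SDS loading buffer, resolved on 10% SDS-PAGE, blotted to nitrocellulose and probed with HRP-Streptavidin.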

[6] = molecular target: FBW7/Skp1 (Homo sapiens, UniProt Q969H0); test: Selectivity assay vs other E3s: Fbw7; format: biochemical; conditions: for inhibition at 100 µM: value in brackets, read-out: % Inhibition Fbw7 @ (100 μM); for inhibition at 10 µM: read-out: % Inhibition Fbw7 @ 10 μM
Summary of the method: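 FBW7/Skp1 E3 ubiquitination of cyclin E substrate in 50 mM HEPES pH 7.5, 75 mM NaCl, 1 mM DTT; preincubated 30 min at room temperature before Mg/ATP, then 60 min more. Products resolved by 10% SDS-PAGE and immunoblotted with anti-cyclin E.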

[7] = Table 11, with spread, read-out: FP IC50/μM
[8] = Tables 1, 3, 7, 8, 10 nM fluorescein-tagged IκB peptide, read-out: FP Assay IC50/μM

FBW7/Skp1, sequence (Q969H0 whole entry, species assumed): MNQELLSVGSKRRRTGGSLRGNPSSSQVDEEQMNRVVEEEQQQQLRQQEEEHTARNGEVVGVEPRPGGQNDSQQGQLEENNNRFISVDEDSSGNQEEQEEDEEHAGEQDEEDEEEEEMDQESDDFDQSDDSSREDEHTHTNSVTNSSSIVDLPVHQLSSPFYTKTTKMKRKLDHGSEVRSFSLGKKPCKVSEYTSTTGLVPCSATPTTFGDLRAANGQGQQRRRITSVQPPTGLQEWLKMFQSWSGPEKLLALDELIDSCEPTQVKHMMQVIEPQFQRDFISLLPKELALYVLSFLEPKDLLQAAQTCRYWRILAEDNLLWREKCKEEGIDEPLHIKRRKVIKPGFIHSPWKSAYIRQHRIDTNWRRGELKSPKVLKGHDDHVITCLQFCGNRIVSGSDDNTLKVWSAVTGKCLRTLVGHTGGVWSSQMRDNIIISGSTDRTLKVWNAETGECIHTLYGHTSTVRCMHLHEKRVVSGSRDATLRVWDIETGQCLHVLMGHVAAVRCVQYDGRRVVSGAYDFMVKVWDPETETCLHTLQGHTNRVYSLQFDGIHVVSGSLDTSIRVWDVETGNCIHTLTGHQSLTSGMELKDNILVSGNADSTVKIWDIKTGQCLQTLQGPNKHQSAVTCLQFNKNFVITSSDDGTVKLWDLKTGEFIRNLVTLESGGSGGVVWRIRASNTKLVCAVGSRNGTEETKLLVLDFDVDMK
FBW7/Skp1, sequence (P63208 whole entry partner, species assumed): as the sequence (P63208 whole entry partner, one chain of several) above
FBW7/Skp1, sequence (Q13616 whole entry partner, species assumed): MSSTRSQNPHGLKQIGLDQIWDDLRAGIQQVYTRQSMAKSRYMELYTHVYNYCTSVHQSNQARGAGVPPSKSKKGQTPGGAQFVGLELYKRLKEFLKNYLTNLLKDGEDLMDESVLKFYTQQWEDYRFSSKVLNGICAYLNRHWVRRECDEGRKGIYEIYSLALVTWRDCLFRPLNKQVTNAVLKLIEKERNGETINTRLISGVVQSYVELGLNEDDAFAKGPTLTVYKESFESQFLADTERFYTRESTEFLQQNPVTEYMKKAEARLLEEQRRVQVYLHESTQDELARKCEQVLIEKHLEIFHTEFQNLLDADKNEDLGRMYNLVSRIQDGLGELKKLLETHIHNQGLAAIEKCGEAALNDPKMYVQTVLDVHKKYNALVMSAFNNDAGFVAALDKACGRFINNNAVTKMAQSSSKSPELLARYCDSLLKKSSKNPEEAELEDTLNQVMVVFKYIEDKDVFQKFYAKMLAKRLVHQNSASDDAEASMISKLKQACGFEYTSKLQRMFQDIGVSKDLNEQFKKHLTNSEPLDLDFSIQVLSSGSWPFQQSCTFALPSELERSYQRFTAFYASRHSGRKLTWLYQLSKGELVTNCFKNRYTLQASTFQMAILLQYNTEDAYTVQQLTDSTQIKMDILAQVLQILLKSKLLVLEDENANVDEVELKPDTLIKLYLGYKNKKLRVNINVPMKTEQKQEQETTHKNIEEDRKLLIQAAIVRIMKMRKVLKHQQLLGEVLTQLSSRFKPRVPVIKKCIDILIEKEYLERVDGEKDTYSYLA
FBW7/Skp1, sequence (P62877 whole entry partner, species assumed): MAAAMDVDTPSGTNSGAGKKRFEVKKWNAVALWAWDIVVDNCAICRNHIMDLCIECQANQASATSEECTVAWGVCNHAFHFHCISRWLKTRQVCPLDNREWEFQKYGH
βTrCP/Skp1, sequence (P63208 whole entry partner, one chain of several): as the sequence (P63208 whole entry partner, one chain of several) above
β-TrCP1/Skp1, sequence (P63208 2-163 partner limits assumed, one chain of several): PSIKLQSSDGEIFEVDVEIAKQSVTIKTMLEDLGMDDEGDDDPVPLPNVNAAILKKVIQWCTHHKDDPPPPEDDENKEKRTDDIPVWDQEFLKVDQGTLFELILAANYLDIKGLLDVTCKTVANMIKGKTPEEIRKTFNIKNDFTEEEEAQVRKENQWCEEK
Skp2, sequence (Q13309 whole entry, species assumed): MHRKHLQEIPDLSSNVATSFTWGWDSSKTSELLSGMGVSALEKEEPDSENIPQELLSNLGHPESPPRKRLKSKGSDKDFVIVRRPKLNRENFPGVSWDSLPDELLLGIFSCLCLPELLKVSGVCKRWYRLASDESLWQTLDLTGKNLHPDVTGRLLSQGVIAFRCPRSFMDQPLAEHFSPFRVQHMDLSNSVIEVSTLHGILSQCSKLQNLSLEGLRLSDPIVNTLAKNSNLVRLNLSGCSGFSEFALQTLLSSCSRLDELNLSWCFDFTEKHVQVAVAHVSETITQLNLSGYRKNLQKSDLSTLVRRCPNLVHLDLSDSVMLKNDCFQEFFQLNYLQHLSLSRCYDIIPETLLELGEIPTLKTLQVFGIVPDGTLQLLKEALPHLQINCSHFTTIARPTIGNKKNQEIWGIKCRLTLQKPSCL
Skp2, sequence (P63208 whole entry partner, species assumed): as the sequence (P63208 whole entry partner, one chain of several) above
Skp2, sequence (Q13616 whole entry partner, species assumed): as the sequence (Q13616 whole entry partner, species assumed) above
Skp2, sequence (P62877 whole entry partner, species assumed): as the sequence (P62877 whole entry partner, species assumed) above

Structure (SMILES) | IC50 [1, 7] [µM] | IC50 [1, 8] [µM] | Kd [2] [µM] | Biotin Pulldown Assay 10 μM [3] | Biotin Pulldown Assay 100 μM [3] | Ub Assay 10 μM [4] | Ub Assay 100 μM [4] | inhibition at 100 µM [5] [%] | inhibition at 10 µM [5] [%] | inhibition at 100 µM [6] [%] | inhibition at 10 µM [6] [%]
NC(=O)[C@H](CCC(=O)O)NC(=O)[C@H](Cc1ccccc1)NC(=O)[C@H](Cc1ccc(O)cc1)NC(=O)CNC(=O)[C@H](CCC(=O)O)NC(=O)CCC(=O)O [UBP007, Suc-EGYFE-NH2] (Suc-EGYFE-NH2) | 1.04 ± 0.101 | 1 | 0.537 ± 0.117 | no effect/ | inhibits | reduces/ | inhibits | 28 | 11 | 0 | 0
NC(=O)[C@H](CCC(=O)O)NC(=O)[C@H](Cc1ccc([N+](=O)[O-])cc1)NC(=O)[C@H](Cc1cccc(F)c1)NC(=O)CNC(=O)[C@H](CCC(=O)O)NC(=O)CCC(=O)O [UBP004, Suc-EGF(3F)F(4NO2)E-NH2] (Suc-EG[Phe(3-F)][Phe(4-NO2)]E-NH2) | 0.522 ± 0.049 |  | 4.53 ± 0.681 | reduces/ | inhibits | inhibits/ | inhibits | 3 | 0 | 2 | 0
NC(=O)[C@H](CCC(=O)O)NC(=O)[C@H](Cc1cccc2ccccc12)NC(=O)[C@H](Cc1cccc(F)c1)NC(=O)CNC(=O)[C@H](CCC(=O)O)NC(=O)CCC(=O)O [UBP010, Suc-EGF(3F)1NalE-NH2] (Suc-EG[Phe(3-F)][1Nal]E-NH2) | 0.157 ± 0.037 | 0.157 | 0.32 ± 0.24 | inhibits/ | inhibits | inhibits/ | inhibits | 12 | 0 | 0 | 3
NC(=O)[C@H](CCC(=O)O)NC(=O)[C@H](Cc1ccc([N+](=O)[O-])cc1)NC(=O)[C@H](Cc1ccc(O)cc1)NC(=O)CNC(=O)[C@H](CCC(=O)O)NC(=O)CCC(=O)O [UBP013, Suc-EGYF(4NO2)E-NH2] (Suc-EGY[Phe(4-NO2)]E-NH2) | 2.07 ± 0.346 |  | 17.7 ± 5.2 | no effect/ | inhibits | no effect/ | inhibits | 31 | 11 | 0 | 0
NC(=O)[C@H](CCC(=O)O)NC(=O)[C@H](Cc1c[nH]c2ccccc12)NC(=O)[C@H](Cc1cccc(F)c1)NC(=O)CNC(=O)[C@H](CCC(=O)O)NC(=O)CCC(=O)O [UBP014, Suc-EGF(3F)WE-NH2] (Suc-EG[Phe(3-F)]WE-NH2) | 0.095 ± 0.009 | 0.095 | 0.455 ± 0.03 | reduces/ | inhibits | reduces/ | inhibits | 6 | 5 | 0 | 0
NC(=O)[C@H](CCC(=O)O)NC(=O)[C@H](Cc1ccc([N+](=O)[O-])cc1)NC(=O)[C@H](Cc1ccccc1F)NC(=O)CNC(=O)[C@H](CCC(=O)O)NC(=O)CCC(=O)O [UBP003, Suc-EGF(2F)F(4NO2)E-NH2] (Suc-EG[Phe(2-F)][Phe(4-NO2)]E-NH2) | 4.91 ± 0.702 |  | 8 ± 0.26 | no effect/ | reduces | no effect/ | inhibits | 11 | 8 | 0 | 0
NC(=O)[C@H](CCC(=O)O)NC(=O)[C@H](Cc1ccc([N+](=O)[O-])cc1)NC(=O)[C@H](Cc1cccc(F)c1)NC(=O)CNC(=O)[C@H](CCC(=O)O)NC(=O)/C=C\C(=O)O [UBP008, Mal-EGF(3F)F(4NO2)E-NH2] (Maleoyl-EG[Phe(3-F)][Phe(4-NO2)]E-NH2) | 2.17 ± 0.425 |  | 1.46 ± 0.035 | no effect/ | inhibits | no effect/ | inhibits | 14 | 0 | 18 | 0
